Source: ChEMBL document CHEMBL1201862, “PubChem BioAssay data set” (2004)
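Grown in 96-well plates, cells were treated for 48 hours with each compound at five concentrations. Insufficient inhibition: endpoint recorded as highest concentration tested. GI50 is the concentration that inhibits growth by half.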 Active and inactive are the calls of the source. Rule as the data show it: active = GI50 up to about 1.1 µM and inactive = higher.

Key:
Experiment in all cases: DTP human tumour cell line panel, 48 h
MOLT-4 = tested on: MOLT-4
NCI-H460 = tested on: NCI-H460
UACC-257 = tested on: UACC-257
ACHN = tested on: ACHN
SW-620 = tested on: SW-620
IGROV-1 = tested on: IGROV-1
K562 = tested on: K562
SF-295 = tested on: SF-295
SK-MEL-2 = tested on: SK-MEL-2
786-0 = tested on: 786-0
SF-539 = tested on: SF-539
A498 = tested on: A498
UO-31 = tested on: UO-31
TK-10 = tested on: TK-10
OVCAR-4 = tested on: OVCAR-4
NCI-H23 = tested on: NCI-H23

SMILES	GI50 (MOLT-4)	GI50 (NCI-H460)	GI50 (UACC-257)	GI50 (ACHN)	GI50 (SW-620)	GI50 (IGROV-1)	GI50 (K562)	GI50 (SF-295)	GI50 (SK-MEL-2)	GI50 (786-0)	GI50 (SF-539)	GI50 (A498)	GI50 (UO-31)	GI50 (TK-10)	GI50 (OVCAR-4)	GI50 (NCI-H23)
CN(C)CCNC(=O)c1cccc2nc3ccc4ccccc4c3nc12	0.0324 µM (active)	0.0266 µM (active)	0.212 µM (active)	0.0658 µM (active)	0.0181 µM (active)	0.0817 µM (active)	0.0931 µM (active)	0.0989 µM (active)	0.177 µM (active)	0.125 µM (active)	0.0652 µM (active)	0.0832 µM (active)	0.0685 µM (active)	0.139 µM (active)	0.114 µM (active)	0.0942 µM (active)
COC(=O)C1(C(C)C)CCc2c(OC)ccc(OC)c2C1=O (stereo unspecified)	74.3 µM (inactive)	> 100 µM (inactive)	> 100 µM (inactive)	> 100 µM (inactive)	> 100 µM (inactive)	> 100 µM (inactive)	> 100 µM (inactive)	> 100 µM (inactive)	> 100 µM (inactive)	> 100 µM (inactive)	> 100 µM (inactive)	> 100 µM (inactive)	> 100 µM (inactive)	> 100 µM (inactive)	96.6 µM (inactive)	–
CCCS(=O)(=O)/C(=C(\c1ccc(Br)cc1)S(=O)(=O)CCC)c1ccc(Br)cc1	> 10 µM (inactive)	> 10 µM (inactive)	> 10 µM (inactive)	> 10 µM (inactive)	> 10 µM (inactive)	> 10 µM (inactive)	> 10 µM (inactive)	> 10 µM (inactive)	> 10 µM (inactive)	> 10 µM (inactive)	> 10 µM (inactive)	> 10 µM (inactive)	> 10 µM (inactive)	> 10 µM (inactive)	> 10 µM (inactive)	> 10 µM (inactive)
Cc1nn(C(=O)CC(=O)Nc2ccccc2Cl)c(C)c1/N=N/c1ccccc1Cl	> 100 µM (inactive)	> 100 µM (inactive)	> 100 µM (inactive)	> 100 µM (inactive)	> 100 µM (inactive)	> 100 µM (inactive)	> 100 µM (inactive)	> 100 µM (inactive)	> 100 µM (inactive)	> 100 µM (inactive)	80.9 µM (inactive)	> 100 µM (inactive)	> 100 µM (inactive)	> 100 µM (inactive)	> 100 µM (inactive)	> 100 µM (inactive)
O=C(O)c1oc2ccc([N+](=O)[O-])c3c2c1CCC3	–	> 100 µM (inactive)	> 100 µM (inactive)	> 100 µM (inactive)	> 100 µM (inactive)	–	–	> 100 µM (inactive)	> 100 µM (inactive)	98.9 µM (inactive)	> 100 µM (inactive)	–	> 100 µM (inactive)	> 100 µM (inactive)	> 100 µM (inactive)	> 100 µM (inactive)
O=C(CC(=O)N1N=C(N2c3ccccc3Sc3ccccc32)CC1c1ccccc1)Nc1ccc(Cl)cc1 (stereo unspecified)	–	> 100 µM (inactive)	> 100 µM (inactive)	> 100 µM (inactive)	> 100 µM (inactive)	> 100 µM (inactive)	> 10 µM (inactive)	> 100 µM (inactive)	–	> 100 µM (inactive)	> 100 µM (inactive)	> 100 µM (inactive)	> 100 µM (inactive)	> 100 µM (inactive)	> 100 µM (inactive)	> 100 µM (inactive)
COc1cc2c3c(c1OC)C1(C=CC(=O)C=C1)C[C@H]3N(C)CC2 [PRONUCIFERINE]	> 100 µM (inactive)	> 100 µM (inactive)	> 100 µM (inactive)	> 100 µM (inactive)	> 100 µM (inactive)	> 100 µM (inactive)	–	> 100 µM (inactive)	> 100 µM (inactive)	> 100 µM (inactive)	> 100 µM (inactive)	–	> 100 µM (inactive)	> 100 µM (inactive)	–	> 100 µM (inactive)
COc1ccc2c3c(c(C(=O)O)oc13)CCC2	> 100 µM (inactive)	> 100 µM (inactive)	> 100 µM (inactive)	> 100 µM (inactive)	> 100 µM (inactive)	> 100 µM (inactive)	> 100 µM (inactive)	> 100 µM (inactive)	> 100 µM (inactive)	> 100 µM (inactive)	> 100 µM (inactive)	–	40.7 µM (inactive)	> 100 µM (inactive)	> 100 µM (inactive)	> 100 µM (inactive)
CCCC(=O)c1ccc(=O)n(C)c1	> 100 µM (inactive)	> 100 µM (inactive)	–	> 100 µM (inactive)	> 100 µM (inactive)	> 100 µM (inactive)	> 100 µM (inactive)	> 100 µM (inactive)	> 100 µM (inactive)	> 100 µM (inactive)	> 100 µM (inactive)	–	> 100 µM (inactive)	> 100 µM (inactive)	> 100 µM (inactive)	> 100 µM (inactive)
c1ccc(C2CC(c3ccc4ccccc4c3)=Nc3ccccc3S2)cc1 (stereo unspecified)	30.4 µM (inactive)	15.7 µM (inactive)	19.5 µM (inactive)	16.7 µM (inactive)	18.8 µM (inactive)	22.8 µM (inactive)	20 µM (inactive)	17.9 µM (inactive)	18.1 µM (inactive)	16.6 µM (inactive)	16.7 µM (inactive)	17.3 µM (inactive)	12.5 µM (inactive)	22.3 µM (inactive)	19.5 µM (inactive)	14.8 µM (inactive)
O=C1c2ccccc2C2(Br)C(=O)c3ccccc3C12 (stereo unspecified)	> 100 µM (inactive)	> 100 µM (inactive)	> 100 µM (inactive)	> 100 µM (inactive)	> 100 µM (inactive)	> 100 µM (inactive)	> 100 µM (inactive)	> 100 µM (inactive)	> 100 µM (inactive)	> 100 µM (inactive)	> 100 µM (inactive)	–	> 100 µM (inactive)	> 100 µM (inactive)	> 100 µM (inactive)	> 100 µM (inactive)
O=C1OC(c2ccccc2)=N/C1=C/NC(Cc1ccc(O)cc1)C(=O)O (stereo unspecified)	–	> 100 µM (inactive)	73.5 µM (inactive)	> 100 µM (inactive)	> 100 µM (inactive)	–	> 100 µM (inactive)	> 100 µM (inactive)	> 100 µM (inactive)	> 100 µM (inactive)	> 100 µM (inactive)	> 100 µM (inactive)	> 100 µM (inactive)	> 100 µM (inactive)	> 100 µM (inactive)	> 100 µM (inactive)
COc1cc(Br)c(/C=N\c2cccc3cc(OC)c(OC)cc23)cc1OC	26.8 µM (inactive)	> 100 µM (inactive)	85.7 µM (inactive)	51.5 µM (inactive)	35.6 µM (inactive)	61.2 µM (inactive)	19.9 µM (inactive)	25.9 µM (inactive)	–	22.6 µM (inactive)	22.1 µM (inactive)	–	27.9 µM (inactive)	83.2 µM (inactive)	91.8 µM (inactive)	39.7 µM (inactive)
CC(Cl)(/C=C/Cl)C(Cl)/C=C/C(Cl)(CCl)CBr (stereo unspecified)	0.373 µM (active)	3.15 µM (inactive)	2.2 µM (inactive)	5.51 µM (inactive)	2.15 µM (inactive)	8.71 µM (inactive)	1.65 µM (inactive)	6.53 µM (inactive)	3.82 µM (inactive)	2.9 µM (inactive)	–	13.5 µM (inactive)	14.5 µM (inactive)	7.45 µM (inactive)	3.05 µM (inactive)	1.88 µM (inactive)
O=C1OC2CCCC[C@@H]2C2C[C@]34CCCCC3[C@@H](C(=O)O4)C12 (stereo partly specified)	> 100 µM (inactive)	> 100 µM (inactive)	> 100 µM (inactive)	> 100 µM (inactive)	> 100 µM (inactive)	–	> 100 µM (inactive)	> 100 µM (inactive)	> 100 µM (inactive)	> 100 µM (inactive)	> 100 µM (inactive)	> 100 µM (inactive)	> 100 µM (inactive)	> 100 µM (inactive)	> 100 µM (inactive)	> 100 µM (inactive)
CC(=O)OCC1OC(NC(=S)N/N=C2\CC(c3ccccc3)Oc3ccccc32)C(OC(C)=O)C(OC(C)=O)C1OC(C)=O (stereo unspecified)	> 100 µM (inactive)	> 100 µM (inactive)	> 100 µM (inactive)	> 100 µM (inactive)	> 100 µM (inactive)	> 100 µM (inactive)	> 100 µM (inactive)	> 100 µM (inactive)	–	> 100 µM (inactive)	> 100 µM (inactive)	> 100 µM (inactive)	> 100 µM (inactive)	> 100 µM (inactive)	> 100 µM (inactive)	> 100 µM (inactive)
C[N+]1(C)C/C(=C\c2ccccc2)C(=O)/C(=C/c2ccccc2)C1	32.8 µM (inactive)	> 100 µM (inactive)	> 100 µM (inactive)	> 100 µM (inactive)	–	> 100 µM (inactive)	62.2 µM (inactive)	> 100 µM (inactive)	–	> 100 µM (inactive)	> 100 µM (inactive)	> 100 µM (inactive)	> 100 µM (inactive)	> 100 µM (inactive)	> 100 µM (inactive)	> 100 µM (inactive)
O=C(CC(=O)C(=O)CC(=O)OCc1ccccc1)OCc1ccccc1	64.3 µM (inactive)	–	–	–	88.9 µM (inactive)	78.3 µM (inactive)	58.6 µM (inactive)	–	> 100 µM (inactive)	> 100 µM (inactive)	53.5 µM (inactive)	> 100 µM (inactive)	27.3 µM (inactive)	> 100 µM (inactive)	50.5 µM (inactive)	53.2 µM (inactive)
O=C(c1ccc(Cl)cc1)N(C(=S)N1CCN(c2ccccc2)CC1)c1ccccc1	> 100 µM (inactive)	> 100 µM (inactive)	> 100 µM (inactive)	> 100 µM (inactive)	> 100 µM (inactive)	> 100 µM (inactive)	> 100 µM (inactive)	> 100 µM (inactive)	> 100 µM (inactive)	> 100 µM (inactive)	> 100 µM (inactive)	–	> 100 µM (inactive)	> 100 µM (inactive)	> 100 µM (inactive)	> 100 µM (inactive)
